Reference: US11345694B2, “Antibacterial compounds” (DISCUVA LTD., priority 2017, dated 2022)
≈ marks a conversion by molar mass, not a printed value.

Tests used:
[1] = system: Staphylococcus aureus ATCC 35556 (SA); experiment: MIC broth microdilution; assay type: cell-based; details: for MIC: ATCC35556
Summary of the method: (§1)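 CLSI M07 broth microdilution; cation-adjusted MH broth; 2-fold series, final 0.39-200 μM, ≤2% DMSO final; 37° C, ambient atmosphere, 20-24 h. MIC = lowest conc. with no growth.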

[2] = system: Enterobacter cloacae DSM 30054 (Ed); experiment: MIC broth microdilution; assay type: cell-based; details: for MIC: DSM30054
Summary of the method: (§2)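 CLSI M07-A10 broth microdilution against planktonic cells, two-fold serial compound dilutions spanning 0.39-200 μM final, DMSO at most 2% final. Cation-adjusted Müller-Hinton broth, 37° C, ambient air; MIC taken as lowest concentration inhibiting growth after 20-24 hour incubation.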

[3] = system: Pseudomonas aeruginosa ATCC 33359 (PA); experiment: MIC broth microdilution; assay type: cell-based; details: for MIC: ATCC33359
Summary of the method: as §1

[4] = system: Salmonella typhimurium XNAA5 (St); experiment: MIC broth microdilution; assay type: cell-based; details: for MIC: Salmonella enterica
Summary of the method: as §1

[5] = system: Serratia marcescens SL1344 (Sm); experiment: MIC broth microdilution; assay type: cell-based
Summary of the method: as §1

[6] = system: Escherichia coli K12 (EC); experiment: MIC broth microdilution; assay type: cell-based
Summary of the method: as §1

[7] = system: Klebsiella pneumoniae ATCC 10031 (KP2); experiment: MIC broth microdilution; assay type: cell-based; details: for MIC: ATCC10031
Summary of the method: as §2

[8] = system: Acinetobacter baumannii ATCC 17978 (AB); experiment: MIC broth microdilution; assay type: cell-based; details: for MIC: ATCC17978
Summary of the method: as §1

[9] = system: human hepatocarcinoma cell line ATCC HB-8065 (HepG2); experiment: Human cell viability (CellTiter-Glo); assay type: cell-based; details: Homo sapiens; HepG2 cells, 24 h incubation, CellTiter-Glo luminescence, 0.2-100 μM; read-out: IC50 values against the HepG2 cell line
Summary of the method: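 HepG2 cells were seeded at 20,000 cells/well in MEM with 10% FBS and, after 24 h, exposed for 24 h at 37° C. to two-fold dilutions (final 0.2-100 μM) in MEM with 1% FBS and 1% DMSO. Viability was read by CellTiter-Glo luminescence, with IC50 from a 4-parameter logistic fit.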

[10] = system: K. pneumoniae H154600588 (KP8); experiment: MIC broth microdilution; assay type: cell-based, Klebsiella pneumoniae; details: for MIC: Klebsiella pneumoniae
Summary of the method: as §2

[11] = system: K. pneumoniae H154300688 (KP9); experiment: MIC broth microdilution; assay type: cell-based, Klebsiella pneumoniae; details: for MIC: Klebsiella pneumoniae
Summary of the method: as §2

[12] = system: K. pneumoniae ATCC 700603 (KP3); experiment: MIC broth microdilution; assay type: cell-based, Klebsiella pneumoniae; details: for MIC: Klebsiella pneumoniae, ATCC700603
Summary of the method: as §2

[13] = system: K. pneumoniae H154020667 (KP6); experiment: MIC broth microdilution; assay type: cell-based, Klebsiella pneumoniae; details: for MIC: Klebsiella pneumoniae
Summary of the method: as §2

[14] = system: K. pneumoniae H151440671 (KP10); experiment: MIC broth microdilution; assay type: cell-based, Klebsiella pneumoniae; details: for MIC: Klebsiella pneumoniae
Summary of the method: as §2

[15] = system: K. pneumoniae NCTC 13438 (KP1); experiment: MIC broth microdilution; assay type: cell-based, Klebsiella pneumoniae; details: for MIC: Klebsiella pneumoniae, NCTC13438
Summary of the method: as §2

[16] = system: K. pneumoniae H154680676 (KP5); experiment: MIC broth microdilution; assay type: cell-based, Klebsiella pneumoniae; details: for MIC: Klebsiella pneumoniae
Summary of the method: as §2

[17] = system: K. pneumoniae H154640784 (KP7); experiment: MIC broth microdilution; assay type: cell-based, Klebsiella pneumoniae; details: for MIC: Klebsiella pneumoniae
Summary of the method: as §2

[18] = system: E. coli NCTC 13441 (UPEC); experiment: MIC broth microdilution; assay type: cell-based, Escherichia coli; details: for MIC: Escherichia coli, NCTC13441
Summary of the method: as §1

Structure (SMILES)	MIC [1] [µM]	MIC [2] [µM]	MIC [3] [µM]	MIC [4] [µM]	MIC [5] [µM]	MIC [6] [µM]	MIC [7] [µM]	MIC [8] [µM]	IC50 [9] [µM]	MIC [10] [µM]	MIC [11] [µM]	MIC [12] [µM]	MIC [13] [µM]	MIC [14] [µM]	MIC [15] [µM]	MIC [16] [µM]	MIC [17] [µM]	MIC [18] [µM]	further results
Cc1cc(-c2[nH]c(N)nc2-c2ccc(OCc3ccc(F)cc3)nc2)ccn1 [Example 28, 4-(6-((4-Fluorobenzyl)oxy)pyridin-3-yl)-5-(2-methylpyridin-4-yl)-1H-imidazol-2-amine]	> 100	≤ 1	> 100	≤ 1	≤ 1	≤ 1	≤ 1	> 100	25 to 100	1 to 10 (≈ 0.375 to 3.75 µg/mL)	≤ 1	1 to 10 (≈ 0.375 to 3.75 µg/mL)	≤ 1	≤ 1	1 to 10 (≈ 0.375 to 3.75 µg/mL)	≤ 1	1 to 10 (≈ 0.375 to 3.75 µg/mL)	≤ 1	–
Cc1cc(-c2nc(N)[nH]c2-c2ccc(OCc3ccc(F)cc3)c(F)c2)ccn1 [Example 16, 5-(3-Fluoro-4-((4-fluorobenzyl)oxy)phenyl)-4-(2-methylpyridin-4-yl)-1H-imidazol-2-amine]	> 100	≤ 1	> 100	≤ 1	≤ 1	≤ 1	≤ 1	> 100	25 to 100	≤ 1	≤ 1	≤ 1	≤ 1	≤ 1	≤ 1	≤ 1	≤ 1	≤ 1	–
C[C@@H](O)[C@H]1C(=O)N2C(C(=O)O)=C(SCCN=CN)C[C@H]12 [IPM]	–	–	–	–	–	–	–	–	–	–	–	–	–	–	–	–	–	–	MIC SA [1]: A (an MIC (μM) of less or equal to 1 is assigned the letter A); MIC Ecl [2]: B (a MIC of from 1 to 10 is assigned the letter B); MIC PA [3]: B (a MIC of from 1 to 10 is assigned the letter B); MIC St [4]: B (a MIC of from 1 to 10 is assigned the letter B); MIC Sm [5]: B (a MIC of from 1 to 10 is assigned the letter B); MIC EC [6]: A (an MIC (μM) of less or equal to 1 is assigned the letter A); MIC KP2 [7]: B (a MIC of from 1 to 10 is assigned the letter B); MIC AB [8]: A (an MIC (μM) of less or equal to 1 is assigned the letter A); MIC KP8 [10]: D (a MIC of over 100 is assigned the letter D); MIC KP9 [11]: D (a MIC of over 100 is assigned the letter D); MIC KP3 [12]: B (a MIC of from 1 to 10 is assigned the letter B); MIC KP6 [13]: B (a MIC of from 1 to 10 is assigned the letter B); MIC KP10 [14]: C (a MIC of from 10 to 100 is assigned the letter C); MIC KP1 [15]: C (a MIC of from 10 to 100 is assigned the letter C); MIC KP5 [16]: B (a MIC of from 1 to 10 is assigned the letter B); MIC KP7 [17]: C (a MIC of from 10 to 100 is assigned the letter C); MIC UPEC [18]: A (an MIC (μM) of less or equal to 1 is assigned the letter A)
Cc1cc(-c2[nH]c(N)nc2-c2ccc3c(c2)CCO3)ccn1 [Example 3, 4-(2,3-Dihydrobenzofuran-5-yl)-5-(2-methylpyridin-4-yl)-1H-imidazol-2-amine]	> 100	≤ 1	> 100	≤ 1	1 to 10 (≈ 0.292 to 2.92 µg/mL)	≤ 1	≤ 1	> 100	> 100	1 to 10 (≈ 0.292 to 2.92 µg/mL)	1 to 10 (≈ 0.292 to 2.92 µg/mL)	1 to 10 (≈ 0.292 to 2.92 µg/mL)	1 to 10 (≈ 0.292 to 2.92 µg/mL)	1 to 10 (≈ 0.292 to 2.92 µg/mL)	1 to 10 (≈ 0.292 to 2.92 µg/mL)	1 to 10 (≈ 0.292 to 2.92 µg/mL)	1 to 10 (≈ 0.292 to 2.92 µg/mL)	≤ 1	–
